Tests used:
[1] = tested on: skin; assay: Demonstrations of anesthetizing plastic, tapes and adhesive films on skin; format: in vivo, human; conditions: employed instead of lidocaine
Excerpt: […]. For instance, lidocaine added to polyvinyl chloride is all that is needed to create a soft, stretchy, elastic vinyl milled film or sheet. Like the common vinyl plasticizer di-isooctyl phthalate, lidocaine base slowly migrates to the surface of the formed object, to serve as a sustained source of anesthetic to tissue contacted by the device. The rate of drug delivery is governed by the selected concentration of the drug, the selected plastic resin and the acceptance rate of the part of the body with which the anesthetizing plastic is in contact. […]. A piece of such milled vinyl anesthetic material has remained taped to skin for 10 days without any diminution of anesthetizing effect or apparent loss of plasticization.
. […]. However, when this adhesive-topical anesthetic mixture is applied to polyethylene film as a carrier and is pressed with a warm hand to human skin, sufficient tackiness is observed that the film clings to the applied areas effectively, but can be readily removed. The tacky product is suitably dispensed with the tacky layer protected by contact with silicone coated release paper.
With such devices, in 1-3 hours topical anesthesia of the skin is established, which will last for 2-3 days if the film patch is left in place. Washing the skin e.g. with lauramide surfactant prior to applying the film decreases the onset time for skin anesthesia. […]

[2] = Description: In one case, in the course of manufacture, propafenone is dissolved in orally administratable solid granules such as coarse or fine powder of non-biodegradable thermoplastic resin. […] In another embodiment, the resin is formed on or as an implant to release the drug directly to heart tissue or the blood stream, or as a transdermal patch or as a drug-applying ear or nose plug.

Structure (SMILES)	duration of anesthesia following removal compared with lidocaine [1]	amount held by PVC ([2]; PVC)	amount in solution in PVC that can be employed ([2]; PVC)	amount held by CPE ([2]; chlorinated polyethylene, by milling)	amount held by EP ([2]; ethylene propylene, by milling)
CCCCNc1ccc(C(=O)OCCN(C)C)cc1 [tetracaine]	substantially longer	–	–	–	–
CCN(CC)CC(=O)Nc1c(C)cccc1C [lidocaine base]	–	about 50%	≥ 50 % by weight	about 25%	about 25%
CCCCOc1cc(C(=O)NCCN(CC)CC)c2ccccc2n1 [dibucaine]	substantially longer	–	–	–	–
